pIC50: −log10 of the molar value.
What was measured:
Format in all cases: cell-based
A549 (Lung) = test: Cell proliferation MTS assay, A549; settings: Homo sapiens, 72 hours
Procedure: (§1) All cell lines were obtained from ATCC and cultured and plated according to ATCC recommendations. Cells were cultured in complete culture media containing 10% heat-inactivated fetal bovine serum (FBS, Mediatech, Inc.). For adherent cell lines, once cells reached 70% confluency, they were trypsinized and resuspended in phenol red free RPMI media (Mediatech, Inc.) plus 10% heat-inactivated FBS (assay buffer) and 100 μL aliquots were plated into each well of 96-well microtiter plates at a final density of 1,000-2,000 cells/well. Cells were incubated overnight at 37° C. in 5% CO2, and treated with test compounds on the next day. For suspension cell lines, cells were resuspended in assay buffer, plated into 96-well microtiter plates at a density of 10^4-10^5 cells/well/100 μL, and treatment was started on the same day. Cells were treated with vehicle (DMSO) and test compounds for 72 hours at concentration of 100, 70, 40, 20, 10, 5, 2.5, 1.25, 0.5 and 0.2 μM in four replicates at 37° C. in 5% CO2.

pAKT in H1299 cells = test: pAKT status DM50, H1299; settings: Homo sapiens, NCI-H1299; H1299, non-small cell lung cancer
Procedure: PC3 cells were obtained from the American Type Culture Collection (ATCC, Manassas, Va., Cat.# CRL-1435). Two million cells from the prostate cancer line PC3 were placed into 6 cm culture dishes and allowed to grow in complete RPMI 1640 media (Invitrogen, Carlsbad, Calif., Cat.#22400-105) with 10% fetal bovine serum (Invitrogen, Carlsbad, Calif., Cat.#10438-026). After this time period the cells were serum starved for 5 hours followed by application of the test compound. Test compound was added as a DMSO (dimethyl sulfoxide) solution such that the final DMSO concentration in the cell media was less than or equal to 0.2% by volume After 30 minutes of exposure the growth factor stimulant, human IGF-1 (PeproTech, Inc., Rocky Hill, N.J., Cat.#100-11), was added to a final concentration of 0.1 μg/ml in each well. After 30 minutes of IGF-1 exposure, cells were removed from the media and cell lysates were prepared using RIPA Lysis buffer (Upstate, Lake Placid, N.Y., Cat.#20-188), keeping on ice. The pAKT serine 473 level was measured in duplicate samples of the cell lysates using commercially available assays such as the Pathscan® Sandwich ELISA kit for Ser473 pAKT (Cell Signaling, Danvers, Mass., Cat.#7160). A SpectraMax Plus spectrophotometric plate reader (Molecular Devices, Sunnydale, Calif.) was used to measure the optical density signal for pAKT at 450 nm (OD450 nm). The pAKT OD450 nm readings were normalized by total protein amount in the cell lysates determined by standard methods.
Concentrations of test compounds required to inhibit IGF stimulated pAKT levels to 50% of maximum levels in PC3 cells (termed DM50 for decreased maximum 50%) were calculated by inputting the dose responses in the software package GraphPad Prism4 (GraphPad Software, Inc., San Diego, Calif.).
Several other cancer cell lines were obtained from ATCC and grown according to the supplier's recommendations and treated with test compounds. DM50 values listed in Table 6 below were obtained by the methods described in Example A: […]

Panc-1 (Pancreas) = test: Cell proliferation MTS assay, Panc-1; settings: Homo sapiens, 72 hours
Procedure: as §1

DU145 (Prostate) = test: Cell proliferation MTS assay, DU145; settings: Homo sapiens, DU-145, 72 hours
Procedure: as §1

RPM18226 (Myeloma) = test: Cell proliferation MTS assay, RPM18226; settings: 72 hours
Procedure: as §1

786-0 cells = test: Apoptosis in 786-0 cells (Annexin V / PI flow cytometry); parameters: unit not given here; settings: overnight
Procedure: In order to evaluate the mechanism of action of these compounds, 786-0 cell cultures were treated with Cpd 9 or Cpd 28 at different concentrations overnight and then analyzed for apoptotic induction. The cells were stained using standard methods with Annexin V and/or Propedium iodine (PI) at room temperature for 15 minutes. Apoptotic cells at early (Annexin V positive) or late stage (both Annexin V and PI positive) were detected by Flow Cytometry.

786-O (Renal) = test: Cell proliferation MTS assay, 786-O; settings: Homo sapiens, 786-0, 72 hours
Procedure: as §1

LNCaP cells = test: Oxidative stress of prostate cancer cells (8-iso-Prostaglandin F2α ELISA); settings: for OD450 nm reading / 8-iso-Prostaglandin F2α generated: 20 μM; for 8-iso-Prostaglandin F2α generated: control 1.5 μg/mL
Procedure: LNCaP cells were obtained from the American Type Culture Collection (ATCC, Manassas, Va., Cat.# CRL-1740). 3.5 million cells from the prostate cancer line LNCaP were placed into each of three 10 cm culture dishes and allowed to grow overnight in complete RPMI 1640 media (Invitrogen, Carlsbad, Calif., Cat.#22400-105) with 10% fetal bovine serum (Invitrogen, Carlsbad, Calif., Cat#10438-026). Test compound was added into the dishes to the concentration of 0 and 20 μM and allowed to incubate at 37° C. in a 5% CO2 atmosphere for 2 and 24 hours. Following this the pH of the cell culture media was adjusted down to 3.5 with 2M HCl. After sitting at 4° C. for 15 minutes, the cell culture media from each culture dishes was applied to each of three C18 reverse phase columns (Biotage ISOLUTE, Part #220-0020-B, Lot #5223506B2A, www.biotage.com) which were prewashed with 10 mL/column of ethanol followed by 10 mL/column of deionized water. The loaded columns were then washed with 10 mL/column of water, followed by 10 mL/column of 15% ethanol, and finally 10 mL/column hexane. The desired samples were then eluted from the columns by addition of 10 mL/column ethyl acetate. The ethyl acetate was then evaporated to dryness using a rotating evaporator. Each sample was then dissolved in 500 μL of Assay Buffer provided in BioMol's Isoprostane Oxidative Stress Assay Kit A (Cat. # AK150-0001, Lot #3-08010825). Using the kit reagents according to the manufacturer's instructions the oxidative product 8-iso-Prostaglandin F2α was quantitated by ELISA. Also, using reagents from the kit a standard curve of oxidation product (8-iso-Prostaglandin F2α) versus optical density reading at 450 nm. From this curve optical density readings from the test samples were converted to μg/mL of the oxidation marker 8-iso-Prostaglandin F2α. This kit from BioMol is designed to determine the amount of the 8-iso-Prostaglandin F2α produced as a marker for the amount of oxidative stress experienced by the cells.

O=c1cc(N2CCOCC2)oc2c(-c3ccc4c(c3)OCCO4)csc12 [Compound 28, 3-(2,3-dihydrobenzo[b][1,4]dioxin-6-yl)-5-morpholino-7H-thieno[3,2-b]pyran-7-one]
pIC50 (A549 (Lung)): 5.60 | pIC50 (pAKT in H1299 cells): 6.05 | pIC50 (Panc-1 (Pancreas)): 4.73 | pIC50 (DU145 (Prostate)): 5.68 | pIC50 (RPM18226 (Myeloma)): 6.14 | Early stage apoptotic cells (786-0 cells; 5 μM): 10.4 | Late stage apoptotic cells (786-0 cells; 5 μM): 11.56 | Total Apoptotic Cells (786-0 cells; 5 μM): 21.96 | Early stage apoptotic cells (786-0 cells; 10 μM): 16.45 | Late stage apoptotic cells (786-0 cells; 10 μM): 15.43 | Total Apoptotic Cells (786-0 cells; 10 μM): 31.88 | pIC50 (786-O (Renal)): 5.55 | OD450 nm reading (LNCaP cells; 2 hours exposure): 1.01 units | 8-iso-Prostaglandin F2α generated (LNCaP cells; 2 hours): 18.0 µg/mL | OD450 nm reading (LNCaP cells; 24 hours exposure): 0.96 units | 8-iso-Prostaglandin F2α generated (LNCaP cells; 24 hours): 21.0 µg/mL | increase of oxidation marker 8-iso-Prostaglandin F2α relative to untreated controls (LNCaP cells; 2 hours): 12 fold | increase of oxidation marker 8-iso-Prostaglandin F2α relative to untreated controls (LNCaP cells; 24 hours): 14 fold

From patent US9981983B2, “Thienopyranones as kinase inhibitors” (SignalRx Pharmaceuticals, Inc., priority 2008, dated 2018)
